In US5525591A, “Endoparasiticidal compositions based on open-chain octadepsipeptides” (Bayer Aktiengesellschaft, priority 1993, dated 1996):

System: Haemonchus contortus
Assay: In vivo nematode test Haemonchus contortus/sheep
Details: sheep infected experimentally with Haemonchus contortus, treated after prepatency period; pure active compound applied orally and/or intravenously; dose at which nematode egg excretion with the faeces stopped completely
Experimental: In vivo nematode test Haemonchus contortus/sheep
The degree of effectiveness is determined by quantitatively determinating the nematode eggs excreted with the faeces before and after the treatment.

tert-Butyl-N-Benzyl-N-propyl-L-leucyl-D-lactyl-N-^i -propyl-L-leucyl-D-3-phenyllactyl-N-^i propyl-L-leucyl-D-lactyl-N-^i propyl-L-leucyl-D-3-phenyllactate [Example 2]
Dosis effectiva: 10 mg/kg
